In ChEMBL document CHEMBL1128972, “Synthesis of pyridinone ribonucleoside 3-O-phosphoramidites and their incorporation into oligoribonucleotides” (Bioorg Med Chem Lett, 1996):

Test: Cleavage rate was reported
Assay type: ADME

**Q.** With `O=c1ccn([C@@H]2O[C@H](CO)[C@@H](O)[C@H]2O)c(=O)[nH]1` [URIDINE] as the compound, how does the K obs read?
**A.** 1.17 min⁻¹

**Q.** Which K obs does the source give for `O=c1ccn(C2O[C@H](CO)[C@@H](O)[C@H]2O)cc1` (stereo partly drawn) here?
**A.** 0.095 min⁻¹

**Q.** For `O=c1ccccn1C1O[C@H](CO)[C@@H](O)[C@H]1O` (stereo partly drawn), which K obs is on record?
**A.** 2.01 min⁻¹
